Consider 5 molecules from paper PMC4971072, “Chemically Homogenous Compounds with Antagonistic Properties at All α1-Adrenoceptor Subtypes but not β1-Adrenoceptor Attenuate Adrenaline-Induced Arrhythmia in Rats” (Frontiers in Pharmacology, 2016).

Structures can show the parent of a compound that is named as a salt.

Experiment [1] relates to adrenaline-induced arrhythmia in rats. Description: Prophylactic antiarrhythmic activity in adrenaline-induced arrhythmia. Format: in vivo, rat. To be noted: for ED50: Rattus norvegicus, read-out: ED50 (confidence limits). As for the experimental part:
The studied compounds were administered i.p. 45 min before the injection of adrenaline, calcium chloride, or barium chloride. The electrocardiogram (ECG) was recorded during the first 2 min as well as in the 5th, 10th, and 15th min after the arrhythmogen injection. […]

Experiment [2] addresses T1, α1B-adrenoceptors (Mus musculus, UniProt P97717).
T1 construct: The spleen was removed from male mice; from tissue; host or cells: isolated mouse spleen
T1 sequence (P97717 1-514): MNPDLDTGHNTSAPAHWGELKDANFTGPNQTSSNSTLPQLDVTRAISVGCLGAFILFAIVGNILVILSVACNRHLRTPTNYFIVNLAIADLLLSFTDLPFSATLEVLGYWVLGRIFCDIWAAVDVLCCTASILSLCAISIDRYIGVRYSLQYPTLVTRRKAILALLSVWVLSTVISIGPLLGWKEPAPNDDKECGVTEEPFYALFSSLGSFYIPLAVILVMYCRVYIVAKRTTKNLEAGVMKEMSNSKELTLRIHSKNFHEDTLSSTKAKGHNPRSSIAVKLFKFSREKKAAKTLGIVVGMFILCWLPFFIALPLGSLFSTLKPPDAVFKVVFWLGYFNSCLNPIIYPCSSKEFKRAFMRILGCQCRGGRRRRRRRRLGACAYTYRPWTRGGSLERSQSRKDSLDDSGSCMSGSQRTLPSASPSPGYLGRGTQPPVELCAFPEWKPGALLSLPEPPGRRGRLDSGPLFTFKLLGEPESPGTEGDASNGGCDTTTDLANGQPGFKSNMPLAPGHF
Description: Functional bioassay, isolated mouse spleen, noradrenaline contraction. The settings on record: noradrenaline as agonist; for Kb: read-out: pA2 ± S.E.M., α1B (converted). The class given is biochemical. Here is the method: The influence on α1B-adrenoceptors was evaluated using the isolated mouse spleen. The spleen was removed from male mice right after killing the anesthetized animal by cervical dislocation. […] The initial optimal tissues tension was set at 1.0 g. Through the 100 min of equilibration tissues were stimulated with noradrenaline (0.1−10.0 μM) three times with washing out until the contractile response become constant. Two cumulative concentration-response curves to noradrenaline, at an interval of 60 min, were established on each tissue both in the presence and absence of antagonist. The incubation with antagonists went on for 30 min. The experiments were carried out in the constant presence of propranolol (1 μM) to block β-adrenoceptors, and minimize the involvement of these adrenoceptors in the response to noradrenaline.
(§1) Data are means ± S.E.M. of at least 4 separate experiments. To establish Hill slopes for the agonist concentration–response curves and calculate EC50 values, curves were fitted to all the data by non-linear regression. The EC50 value in the presence and absence of antagonists was used to ascertain the concentration ratio (CR). Schild analysis was performed.

In experiment [3] the target is T2, α1A-adrenoceptors (Rattus norvegicus, UniProt P43140).
T2 construct: the middle part of the ventral caudal artery was removed; from tissue; host or cells: isolated rat tail (ventral caudal) artery rings
T2 sequence (P43140 1-466): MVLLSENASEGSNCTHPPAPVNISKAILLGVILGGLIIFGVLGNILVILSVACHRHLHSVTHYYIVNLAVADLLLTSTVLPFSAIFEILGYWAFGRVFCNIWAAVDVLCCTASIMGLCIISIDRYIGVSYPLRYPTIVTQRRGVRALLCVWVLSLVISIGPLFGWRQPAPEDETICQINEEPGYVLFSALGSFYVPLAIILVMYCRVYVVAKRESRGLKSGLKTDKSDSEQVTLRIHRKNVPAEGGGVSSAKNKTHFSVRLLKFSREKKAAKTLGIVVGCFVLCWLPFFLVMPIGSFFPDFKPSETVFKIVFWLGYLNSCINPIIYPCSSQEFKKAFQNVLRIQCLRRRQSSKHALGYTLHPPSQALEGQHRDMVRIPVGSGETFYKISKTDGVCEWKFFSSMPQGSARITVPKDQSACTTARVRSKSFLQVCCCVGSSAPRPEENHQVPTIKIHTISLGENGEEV
Description: Functional bioassay, isolated rat tail artery, noradrenaline contraction. Format: biochemical. The settings on record: noradrenaline as agonist; for Kb: read-out: pA2 ± S.E.M., α1A (converted). Here is the method: The isolated artery, cut into ~4 mm long rings, was then horizontally put up between two stainless steel hooks (diameter 0.15 mm). One hook was fastened to the bottom of the chamber and the other to an isometric FDT10-A force displacement transducer (DMT Model 750TOBS, Denmark), linked with Powerlab 4/26 analyzer (ADInstruments), and processed by LabChart 7 software. […] The initial optimal tissues tension was set at 0.75 g. Chloroethylclonidine (3 μM) as the preferential α1B-adrenoreceptor alkylating agent was used during incubation and after 30 min it was completely washed off. Through 100 min of equilibration tissues were stimulated with noradrenaline (1 μM) four times with washing out until the contractile response become constant. Two cumulative concentration-response curves to noradrenaline, at an interval of 60 min, were established on each arterial ring both in the presence and absence of antagonist. The incubation with antagonists went on for 30 min. The experiments were carried out in the constant presence of yohimbine (0.1 μM) and propranolol (1 μM) to block α2- and β-adrenoceptors, respectively in order to minimize the involvement of these adrenoceptors in the response to noradrenaline.
as §1

Experiment [4] has as its system adrenaline-induced arrhythmia in rats. Description: Therapeutic antiarrhythmic activity in adrenaline-induced arrhythmia. Format: in vivo, rat. To be noted: i.v. at ED84 at the peak of adrenaline-induced arrhythmia (20 μg/kg). Here is the method: The ECG was recorded constantly for 5 min as well as in the 10th and 15th min of the experiment.
Experiment [5] has as its target α1-adrenoceptor. Description: α1-adrenoceptor radioligand binding assay ([3H]-prazosin, rat cerebral cortex). To be noted: read-out: Adrenergic receptors Ki α1. As for the experimental part: The α1- and β1-adrenoceptor radioligand binding assay was performed on rat cerebral cortex. […] The cell pellet was resuspended in the Tris–HCl buffer and centrifuged again. Radioligand binding assays were performed in plates (MultiScreen/Millipore). […] The incubation was terminated by rapid filtration through glass fiber filters (Whatman GF/C) using a vacuum manifold (Millipore). The filters were then washed twice with the assay buffer and placed in scintillation vials with a liquid scintillation cocktail. […] All the assays were made in duplicate and the inhibitory constants (Ki) were estimated.
LO–labeled ligand concentration, KD–dissociation constant of labeled ligand

[6] abbreviates: dose 2.5 mg/kg i.p. 45 min before adrenaline 20 μg/kg i.v.
The mark [7] stands for this setting: dose 5 mg/kg i.p. 45 min before adrenaline 20 μg/kg i.v.
Where [8] appears, read: dose 10 mg/kg i.p. 45 min before adrenaline 20 μg/kg i.v.
Setting [9] is: dose 0.1 mg/kg i.p. 45 min before adrenaline 20 μg/kg i.v.
Setting [10] is: dose 0.2 mg/kg i.p. 45 min before adrenaline 20 μg/kg i.v.
Where [11] appears, read: dose 0.3 mg/kg i.p. 45 min before adrenaline 20 μg/kg i.v.

`COc1ccccc1N1CCN(CCOCCOc2c(C)cccc2C)CC1.Cl` [HBK-14, 1-[(2,6-dimethylphenoxy)ethoxyethyl]-4-(2-methoxyphenyl)piperazine hydrochloride]: the ED50 (commonly the midpoint of the dose-response relation) in experiment [1] was 3.88 mg/kg. Besides, in experiment [1] (setting [6]), the “Bigeminy (%)” value came to 50.0%, the “Blocks (%)” value amounted to 83.3%, the “Bradycardia (%)” value was found to be 83.3% and the “Extrasystoles (%)” value was 100.0%. Moreover, in experiment [1] (setting [7]), the “Bigeminy (%)” value is on record as 33.3%, the “Blocks (%)” value stood at 33.3%, the “Bradycardia (%)” value is given as 50.0% and the “Extrasystoles (%)” value came out at 50.0%. Further, in experiment [1] (setting [8]), the “Bigeminy (%)” value came out at 16.7%, the “Blocks (%)” value worked out at 33.3%, the “Bradycardia (%)” value came out at 50.0% and the “Extrasystoles (%)” value amounted to 16.7%. Besides, in experiment [2], the “Schild slope ± S.E.M., α1B” value was determined as 1.03 ± 0.03 and the Kb is 20 nM. In addition, in experiment [3], the “Schild slope ± S.E.M., α1A” value was 0.97 ± 0.15 and the Kb is 10.2 nM.

On to `COc1ccccc1N1CCN(CCOCCOc2c(C)cccc2Cl)CC1.Cl` [HBK-15, 1-[(2-chloro-6-methylphenoxy)ethoxyethyl]-4-(2-methoxyphenyl)piperazine hydrochloride], for which the ED50 in experiment [1] came out at 4.8 mg/kg. In experiment [1] (setting [6]), the “Bigeminy (%)” value is on record as 33.3%, the “Blocks (%)” value came out at 66.7%, the “Bradycardia (%)” value was 66.7% and the “Extrasystoles (%)” value is recorded as 66.7%. Further, in experiment [1] (setting [7]), the “Bigeminy (%)” value was found to be 16.7%, the “Blocks (%)” value turned out to be 50.0%, the “Bradycardia (%)” value came to 66.7% and the “Extrasystoles (%)” value worked out at 50.0%. Besides, in experiment [1] (setting [8]), the “Bigeminy (%)” value turned out to be 16.7%, the “Blocks (%)” value is on record as 33.3%, the “Bradycardia (%)” value worked out at 50.0% and the “Extrasystoles (%)” value was determined as 33.3%. Further, in experiment [2], the “Schild slope ± S.E.M., α1B” value came out at 0.96 ± 0.01 and the Kb is 21.4 nM. In experiment [3], the “Schild slope ± S.E.M., α1A” value worked out at 1.01 ± 0.18 and the Kb is 19.5 nM.

For the molecule `COc1ccccc1N1CCN(CCCOc2cc(C)ccc2Cl)CC1` [HBK-16, 1N-[3-(2-chloro-5-methylphenoxy)propyl]-4N-(2-methoxyphenyl)piperazine hydrochloride], in experiment [1], the 50% effective dose (ED50) was found to be 0.2 mg/kg. Further, in experiment [1] (setting [9]), the “Bigeminy (%)” value was determined as 33.3%, the “Blocks (%)” value came to 50.0%, the “Bradycardia (%)” value worked out at 66.7% and the “Extrasystoles (%)” value is on record as 83.3%. Also, in experiment [1] (setting [10]), the “Bigeminy (%)” value was determined as 16.7%, the “Blocks (%)” value was 33.3%, the “Bradycardia (%)” value stood at 50.0% and the “Extrasystoles (%)” value came out at 33.3%. In addition, in experiment [1] (setting [11]), the “Blocks (%)” value was determined as 16.7%, the “Bradycardia (%)” value is on record as 33.3% and the “Extrasystoles (%)” value amounted to 16.7%. In experiment [2], the “Schild slope ± S.E.M., α1B” value came to 1.03 ± 0.12 and the Kb was 6.17 nM. In experiment [3], the “Schild slope ± S.E.M., α1A” value came out at 1.06 ± 0.08 and the Kb was 1.78 nM. Further, in experiment [4], the “therapeutic antiarrhythmic activity (premature ventricular contractions)” value (from here on “therapeutic antiarrhythmic activity”) is reported as “restored normal heart rhythm”. For the same molecule, the inhibition constant Ki – broadly, a measure of affinity in units of concentration, obtained from inhibition or displacement – in experiment [5] came out at 5 nM.

Take `COc1ccccc1N1CCN(CCCOc2c(C)cc(C)cc2C)CC1` [HBK-18, 1N-[3-(2,4,6-trimethylphenoxy)propyl]-4N-(2-methoxyphenyl)piperazine hydrochloride]: in experiment [1], the ED50 was 0.18 mg/kg. In addition, in experiment [1] (setting [9]), the “Bigeminy (%)” value stood at 50.0%, the “Blocks (%)” value was 66.7%, the “Bradycardia (%)” value turned out to be 66.7% and the “Extrasystoles (%)” value came to 83.3%. In addition, in experiment [1] (setting [10]), the “Bigeminy (%)” value is 16.7%, the “Blocks (%)” value turned out to be 33.0%, the “Bradycardia (%)” value stood at 50.0% and the “Extrasystoles (%)” value is 50.0%. In experiment [1] (setting [11]), the “Blocks (%)” value stood at 16.3%, the “Bradycardia (%)” value is listed as 16.3% and the “Extrasystoles (%)” value is 16.7%. In addition, in experiment [2], the “Schild slope ± S.E.M., α1B” value is recorded as 1.03 ± 0.18 and the Kb was 4.47 nM. Further, in experiment [3], the “Schild slope ± S.E.M., α1A” value is 1.10 ± 0.06 and the Kb is 3.24 nM. For the same molecule, the “therapeutic antiarrhythmic activity” value in experiment [4] was “restored normal heart rhythm”. Further, in experiment [5], the Ki was determined as 5.2 nM.

For the molecule `COc1ccccc1N1CCN(CCCOc2cc(C)cc(C)c2C)CC1` [HBK-19, 1N-[3-(2,3,5-trimethylphenoxy)propyl]-4N-(2-methoxyphenyl)piperazine hydrochloride], in experiment [1], the ED50 amounted to 0.21 mg/kg. Further, in experiment [1] (setting [9]), the “Bigeminy (%)” value is recorded as 33.3%, the “Blocks (%)” value worked out at 50.0%, the “Bradycardia (%)” value was 66.7% and the “Extrasystoles (%)” value is 66.7%. In addition, in experiment [1] (setting [10]), the “Bigeminy (%)” value came to 16.7%, the “Blocks (%)” value turned out to be 33.3%, the “Bradycardia (%)” value worked out at 33.3% and the “Extrasystoles (%)” value is listed as 50.0%. In addition, in experiment [1] (setting [11]), the “Blocks (%)” value turned out to be 16.7%, the “Bradycardia (%)” value was determined as 16.7% and the “Extrasystoles (%)” value came out at 16.7%. Moreover, in experiment [2], the “Schild slope ± S.E.M., α1B” value was determined as 1.06 ± 0.05 and the Kb was 8.51 nM. Further, in experiment [3], the “Schild slope ± S.E.M., α1A” value is on record as 0.96 ± 0.05 and the Kb is 1.23 nM. For the same molecule, the “therapeutic antiarrhythmic activity” value in experiment [4] is recorded as “restored normal heart rhythm”. Further, in experiment [5], the Ki was 22.7 nM.
